Target: human VPS34 (Homo sapiens (Human), UniProt Q8NEB9)
Test: Human VPS34 enzyme assay (Adapta TR-FRET ADP detection)
Type: biochemical
Parameters: Percent Inhibition: dose or concentration left out as unconfirmed
Conditions: for IC50: IC50 range class

human VPS34, sequence (Q8NEB9 whole entry): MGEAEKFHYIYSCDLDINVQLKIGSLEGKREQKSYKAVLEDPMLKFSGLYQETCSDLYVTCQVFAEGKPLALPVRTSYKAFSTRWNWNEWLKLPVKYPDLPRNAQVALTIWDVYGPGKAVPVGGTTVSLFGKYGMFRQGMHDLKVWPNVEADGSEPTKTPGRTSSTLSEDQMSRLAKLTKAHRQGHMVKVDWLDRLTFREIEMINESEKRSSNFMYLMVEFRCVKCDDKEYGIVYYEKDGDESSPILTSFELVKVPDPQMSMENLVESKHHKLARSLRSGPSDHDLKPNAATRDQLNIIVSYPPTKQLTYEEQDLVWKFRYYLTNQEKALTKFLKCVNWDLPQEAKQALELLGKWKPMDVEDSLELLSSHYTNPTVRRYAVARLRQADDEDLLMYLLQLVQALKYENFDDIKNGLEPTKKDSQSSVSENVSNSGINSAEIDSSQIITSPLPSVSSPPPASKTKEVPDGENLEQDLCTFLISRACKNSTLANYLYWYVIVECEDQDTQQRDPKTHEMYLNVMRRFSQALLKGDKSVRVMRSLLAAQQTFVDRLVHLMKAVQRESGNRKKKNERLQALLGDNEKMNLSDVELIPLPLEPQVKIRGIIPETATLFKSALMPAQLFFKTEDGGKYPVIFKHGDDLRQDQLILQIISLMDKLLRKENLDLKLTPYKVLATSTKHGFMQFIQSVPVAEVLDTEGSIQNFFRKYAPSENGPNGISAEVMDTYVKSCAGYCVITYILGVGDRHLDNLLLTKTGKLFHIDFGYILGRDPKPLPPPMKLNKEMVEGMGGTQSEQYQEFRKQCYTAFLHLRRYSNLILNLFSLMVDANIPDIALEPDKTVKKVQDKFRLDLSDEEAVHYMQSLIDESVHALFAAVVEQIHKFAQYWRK

| Compound | IC50 [µM] | Percent Inhibition [%] |
| --- | --- | --- |
| CC(=O)Nc1cc(-c2cnc(N)c(S(=O)(=O)N(C)Cc3ccccc3)c2)ccn1 [Compound I-76, N-{6-amino-5-[benzyl(methyl)sulfamoyl]-3,4′-bipyridin-2′-yl}acetamide] | < 0.01 |  |
| COc1ncc(-c2ccnc(NC(C)=O)c2)c(C)c1S(=O)(=O)NC(C)(C)C [Compound I-442, N-[5-(tert-butylsulfamoyl)-6-methoxy-4-methyl-3,4′-bipyridin-2′-yl]acetamide] | 0.01 to 0.05 |  |
| CC(=O)Nc1cc(-c2cnc(N)c(C(=O)Nc3cccnc3)c2)ccn1 [Compound I-91, 2′-acetamido-6-amino-N-(pyridin-3-yl)-3,4′-bipyridine-5-carboxamide] | < 0.01 |  |
| CC(=O)Nc1cc(-c2cnc(Cl)c(NS(=O)(=O)N(C)C)c2C)ccn1 [Compound I-236, N-{6-chloro-5-[(dimethylsulfamoyl)amino]-4-methyl-3,4′-bipyridin-2′-yl}acetamide] | 0.01 to 0.05 |  |
| Cc1nccc(Nc2cc(-c3cnc(Cl)c(N(C)C)c3C)ccn2)n1 [Compound I-314, 6-chloro-N5,N5,4-trimethyl-N2′-(2-methylpyrimidin-4-yl)-3,4′-bipyridine-2′,5-diamine] | 0.01 to 0.05 |  |
| CC(=O)Nc1cc(-c2cnc(N)c(S(=O)(=O)N3CCCCC3)c2)ccn1 [Compound I-156, N-[6-amino-5-(piperidin-1-ylsulfonyl)-3,4′-bipyridin-2′-yl]acetamide] | < 0.01 |  |
| CC(=O)Nc1cc(-c2cnc(C)c(N3CCCNS3(=O)=O)c2)ccn1 [Compound I-387, N-[5-(1,1-dioxido-1,2,6-thiadiazinan-2-yl)-6-methyl-3,4′-bipyridin-2′-yl]acetamide] | 0.01 to 0.05 |  |
| COC(=O)Nc1cc(-c2cnc(C)c(NS(=O)(=O)c3ccc(F)cc3F)c2)ccn1 [Compound I-195, methyl (5-{[(2,4-difluorophenyl)sulfonyl]amino}-6-methyl-3,4′-bipyridin-2′-yl)carbamate] | < 0.01 |  |
| CC(=O)Nc1cc(-c2cnc(C)c(NS(=O)(=O)c3cc(C(F)(F)F)ccc3F)c2)ccn1 [Compound I-143, N-[5-({[2-fluoro-5-(trifluoromethyl)phenyl]sulfonyl}amino)-6-methyl-3,4′-bipyridin-2′-yl]acetamide] | < 0.01 |  |
| Cc1nccc(Nc2cc(-c3cnc(C)c(OC(C)C)c3)ccn2)n1 [Compound I-446, 5-isopropoxy-6-methyl-N-(2-methylpyrimidin-4-yl)-3,4′-bipyridin-2′-amine] | 0.01 to 0.05 |  |
| COc1ncc(-c2ccnc(NC(C)=O)c2)cc1S(=O)(=O)Nc1cc(F)ccc1F [Compound I-358, N-{5-[(2,5-difluorophenyl)sulfamoyl]-6-methoxy-3,4′-bipyridin-2′-yl}acetamide] | 0.01 to 0.05 |  |
| CC(=O)Nc1cc(-c2cnc(Cl)c(N3CCCNS3(=O)=O)c2)ccn1 [Compound I-448, N-[6-chloro-5-(1,1-dioxido-1,2,6-thiadiazinan-2-yl)-3,4′-bipyridin-2′-yl]acetamide] | 0.01 to 0.05 |  |
| CC(=O)Nc1cc(-c2cnc(N(C)C)c(C(=O)Nc3ccc(F)cc3F)c2)ccn1 [Compound I-112, 2′-acetamido-N-(2,4-difluorophenyl)-6-(dimethylamino)-3,4′-bipyridine-5-carboxamide] | 0.05 to 0.1 |  |
| COc1ccc(S(=O)(=O)Nc2cc(-c3ccnc(NC(C)=O)c3)cnc2C)c(F)c1 [Compound I-163, N-(5-{[(2-fluoro-4-methoxyphenyl)sulfonyl]amino}-6-methyl-3,4′-bipyridin-2′-yl)acetamide] | < 0.01 |  |
| CC(=O)Nc1cc(-c2cnc(C)c(NS(=O)(=O)c3ccc(F)cc3Cl)c2)ccn1 [Compound I-206, N-(5-{[(2-chloro-4-fluorophenyl)sulfonyl]amino}-6-methyl-3,4′-bipyridin-2′-yl)acetamide] | < 0.01 |  |
| CC(=O)Nc1cc(-c2cnc(N)c(S(=O)(=O)N(C)C)c2)ccn1 [Compound I-119, N-[6-amino-5-(dimethylsulfamoyl)-3,4′-bipyridin-2′-yl]acetamide] | < 0.01 |  |
| Cc1nccc(Nc2cc(-c3cncc(C(C)Oc4ccccc4Cl)c3)ccn2)n1 (centres unmarked) [Compound I-336, 5-[1-(2-chlorophenoxy)ethyl]-N-(2-methylpyrimidin-4-yl)-3,4′-bipyridin-2′-amine] | 0.01 to 0.05 |  |
| Cc1ncc(-c2ccnc(NC(=O)N3CCCC3)c2)cc1NS(=O)(=O)c1ccc(F)cc1F [Compound I-313, N-(5-{[(2,4-difluorophenyl)sulfonyl]amino}-6-methyl-3,4′-bipyridin-2′-yl)pyrrolidine-1-carboxamide] | 0.01 to 0.05 |  |
| CNc1ncc(-c2ccnc(NC(C)=O)c2)cc1S(=O)(=O)Nc1ccccc1 [Compound I-100, N-[6-(methylamino)-5-(phenylsulfamoyl)-3,4′-bipyridin-2′-yl]acetamide] | < 0.01 |  |
| Cc1nccc(Nc2cc(-c3cnc(C)c(NS(=O)(=O)N(C)C)c3)ccn2)n1 [Compound I-286, N,N-dimethyl-N′-{6-methyl-2′-[(2-methylpyrimidin-4-yl)amino]-3,4′-bipyridine-5-yl}sulfuric diamide] | < 0.01 |  |

| Compound | IC50 [µM] | Percent Inhibition [%] |
| --- | --- | --- |
| Cc1nccc(Nc2cc(-c3cnc(C)c(NC(=O)c4ccc(F)cc4F)c3)ccn2)n1 [Compound I-249, 2,4-difluoro-N-{6-methyl-2′-[(2-methylpyrimidin-4-yl)amino]-3,4′-bipyridin-5-yl}benzamide] | 0.05 to 0.1 |  |
| CC(=O)Nc1cc(-c2cnc(Cl)c(NS(=O)(=O)c3ccc(Br)cc3F)c2C)ccn1 [Compound I-444, N-(5-{[(4-bromo-2-fluorophenyl)sulfonyl]amino}-6-chloro-4-methyl-3,4′-bipyridin-2′-yl)acetamide] | 0.01 to 0.05 |  |
| CC(=O)Nc1cc(-c2cnc(C)c(NS(=O)(=O)c3ccccc3Cl)c2)ccn1 [Compound I-109, N-(5-{[(2-chlorophenyl)sulfonyl]amino]-6-methyl-3,4′-bipyridin-2′-yl)acetamide] | < 0.01 |  |
| CC(=O)Nc1cc(-c2ccnc(Nc3ccnc(C4CC4)n3)c2)cn2nccc12 [Compound I-371, N-(6-{2-[(2-cyclopropylpyrimidin-4-yl)amino]pyridin-4-yl}pyrazolo[1,5-a]pyridin-4-yl)acetamide] | < 0.01 | >99 |
| CC(=O)Nc1cc(-c2cncc(S(=O)(=O)NC(C)(C)C)c2)ccn1 [Compound I-443, N-[5-(tert-butylsulfamoyl)-3,4′-bipyridin-2′-yl]acetamide] | 0.01 to 0.05 |  |
| COc1ccc(S(=O)(=O)Nc2cc(-c3ccnc(NC(C)=O)c3)cnc2C)cc1 [Compound I-165, N-(5-{[(4-methoxyphenyl)sulfonyl]amino}-6-methyl-3,4′-bipyridin-2′-yl)acetamide] | < 0.01 |  |
| CC(=O)Nc1cc(-c2cnc(Cl)c(S(=O)(=O)NC(C)(C)C)c2C)ccn1 [Compound I-410, N-[5-(tert-butylsulfamoyl)-6-chloro-4-methyl-3,4′-bipyridin-2′-yl]acetamide] | 0.01 to 0.05 |  |
| CC(=O)Nc1cc(-c2cnc(Cl)c(NS(=O)(=O)c3c(Cl)cccc3Cl)c2C)ccn1 [Compound I-354, N-(6-chloro-5-{[(2,6-dichlorophenyl)sulfonyl]amino}-4-methyl-3,4′-bipyridin-2′-yl)acetamide] | 0.01 to 0.05 |  |
| Cc1nccc(Nc2cc(-c3cnc(C)c(OC4CCCC4)c3)ccn2)n1 [Compound I-471, 5-(cyclopentyloxy)-6-methyl-N-(2-methylpyrimidin-4-yl)-3,4′-bipyridin-2′-amine] | 0.01 to 0.05 |  |
| CC(=O)Nc1cc(-c2cnc(C)c(Nc3nc4ccccc4o3)c2)ccn1 [Compound I-392, N-[5-(1,3-benzoxazol-2-ylamino)-6-methyl-3,4′-bipyridin-2′-yl]acetamide] | > 0.1 |  |
| CC(=O)Nc1cc(-c2cncc(NS(=O)(=O)c3ccc(F)cc3F)c2C)ccn1 [Compound I-102, N-(5-{[(2,4-difluorophenyl)sulfonyl]amino]-4-methyl-3,4′-bipyridin-2′-yl)acetamide] | 0.01 to 0.05 |  |
| CC(=O)Nc1cc(-c2cnc(C)c(NS(=O)(=O)N3CCC(C)(C)CC3)c2)ccn1 [Compound I-483, N-(5-{[(4,4-dimethylpiperidin-1-yl)sulfonyl]-amino}-6-methyl-3,4′-bipyridin-2′-yl)acetamide] | 0.01 to 0.05 |  |
| CC(=O)Nc1cc(-c2cnc(NCC3CC3)c(NCC3CC3)c2)ccn1 [Compound I-65, N-{5,6-bis[(cyclopropylmethyl)amino]-3,4′-bipyridin-2′-yl}acetamide] | > 0.1 |  |
| Cc1cnc(NC(=O)C2CC2)cc1-c1cnc(Cl)c(NS(=O)(=O)c2ccc(F)cc2F)c1C [Compound I-430, N-(6-chloro-5-{[(2,4-difluorophenyl)sulfonyl]amino}-4,5′-dimethyl-3,4′-bipyridin-2′-yl)cyclopropanecarboxamide] | 0.01 to 0.05 |  |
| CC(=O)Nc1cc(-c2cnc3c(c2)S(=O)(=O)N(C24CC(C2)C4)CCO3)ccn1 [Compound I-376, N-{4-[2-(bicyclo[1.1.1]pent-1-yl)-1,1-dioxido-3,4-dihydro-2H-pyrido[2,3-b][1,4,5]oxathiazepin-8-yl]pyridin-2-yl}acetamide] | 0.01 to 0.05 |  |
| CC(=O)Nc1cc(-c2cnc(C)c(NS(=O)(=O)c3c(Cl)cccc3Cl)c2)ccn1 [Compound I-463, N-[5-{[(2,6-dichlorophenyl)sulfonyl]amino}-6-methyl-3,4′-bipyridin-2′-yl)acetamide] | < 0.01 |  |
| COc1nccc(Nc2cc(-c3cnc(N)c(C(=O)N(C)C45CC(C4)C5)c3)ccn2)n1 [Compound I-230, 6-amino-N-(bicyclo[1.1.1]pent-1-yl)-2′-((2-methoxypyrimidin-4-yl)amino)-N-methyl-[3,4′-bipyridine]-5-carboxamide] | 0.01 to 0.05 |  |
| CC(=O)Nc1cc(-c2cnc(N)c(C(=O)N3CCc4ccccc43)c2)ccn1 [Compound I-71, N-[6-amino-5-(2,3-dihydro-1H-indol-1-ylcarbonyl)-3,4′-bipyridin-2′-yl]acetamide] | < 0.01 |  |
| Cc1nccc(Nc2cc(-c3cnc(Cl)c(C(=O)O)c3C)ccn2)n1 [Compound I-402, 6-chloro-4-methyl-2′-[(2-methylpyrimidin-4-yl)amino]-3,4′-bipyridine-5-carboxylic acid] | 0.01 to 0.05 |  |
| CC(=O)Nc1cc(-c2ccnc(Nc3ccnc(C)n3)c2)cn2nccc12 [Compound I-450, N-(6-{2-[(2-methylpyrimidin-4-yl)amino]pyridin-4-yl}pyrazolo[1,5-a]pyridin-4-yl)acetamide] | 0.01 to 0.05 |  |

— patent US9751854B2 (Millennium Pharmaceuticals, Inc., priority 2014, dated 2017)
